Where “and” joins values, the source holds several entries; their conditions need not be identical. Equal entries are not always repeated. Where two headings read alike, the source gives them in different places.
Tested on: Escherichia coli ATCC 25922 (GN_001)
Assay: Synergy of cannabidiol with cell-wall disrupting agent (CBD MIC in combination, FICI)
Type: cell-based
Conditions: for FICI: calculated using MIC of 256 μg/mL for cannabidiol; for MIC: Escherichia coli
Protocol: The compounds were stored short term at 4° C.
Analysis was performed using Microsoft Excel.

C=C(C)C1CCC(C)=CC1c1c(O)cc(CCCCC)cc1O (stereo not shown) [Cannabidiol, 2-[3-methyl-6-(1-methylethenyl)-2-cyclohexen-1-yl]-5-pentyl-1,3-benzenediol]
CBD MIC with Cefuroxime (Cefuroxime at 4 μg/mL, Escherichia coli ATCC 25922): 0.001 mg/L
CBD MIC with Cefuroxime (Cefuroxime at 8 μg/mL, Escherichia coli ATCC 25922): 0.001 mg/L
CBD MIC with Colistin (Colistin at 0.06 μg/mL (0.062 in Table 56), Escherichia coli ATCC 25922): 8 mg/L
CBD MIC with Colistin (Colistin at 0.25 μg/mL, Escherichia coli ATCC 25922): 1 mg/L
CBD MIC with Colistin (Colistin at 0.5 μg/mL, Escherichia coli ATCC 25922): 0.125 mg/L
CBD MIC with Colistin (Colistin at […], Escherichia coli ATCC 25922): 2 mg/L
FICI range (Escherichia coli ATCC 25922, CBD with FADDI-287, MIC table (Table 95), listed as CBD): 0.5-16 and 0.25-8
FICI range (Escherichia coli ATCC 25922, CBD with FADDI-287, Synergy table (Table 97), listed as CBD): 0.5 and 0.25-0.5
FICI range (Escherichia coli ATCC 25922, CBD with MCC_8980, MIC table (Table 99)): 0.03-1.02
FICI range (Escherichia coli ATCC 25922, CBD with MCC_8980, Synergy table (Table 101), listed as CBD): 0.03-0.26 and 0.03-0.25
FICI range (Escherichia coli ATCC 25922, CBD with Spero Potentiator SPR741, MIC table (Table 91), listed as CBD): 0.02-1 and 0.04-1.02 and 0.02-1.01
FICI range (Escherichia coli ATCC 25922, CBD with Spero Potentiator SPR741, Synergy table (Table 93), listed as CBD): 0.02-0.25 and 0.04-0.25
CBD MIC with FADDI-287 (Escherichia coli ATCC 25922, FADDI-287 at […], listed as CBD): 1 mg/L
CBD MIC with MCC_8980 (Escherichia coli ATCC 25922, MCC_8980 at 4 μg/mL, listed as CBD): 16 mg/L
CBD MIC with MCC_8980 (Escherichia coli ATCC 25922, MCC_8980 at 16 μg/mL, listed as CBD): 1 mg/L
CBD MIC with Spero SPR206 (Escherichia coli ATCC 25922, Spero SPR206 at 4 μg/mL, listed as CBD): 0.0019 mg/L
FICI (Escherichia coli ATCC 25922, cannabidiol with FADDI-287 at 0.5 μg/mL): 2
FICI (Escherichia coli ATCC 25922, cannabidiol with FADDI-287 at 1 μg/mL): 4 and 2
FICI (Escherichia coli ATCC 25922, cannabidiol with FADDI-287 at 2 μg/mL): 8 and 4
FICI (Escherichia coli ATCC 25922, cannabidiol with FADDI-287 at 4 μg/mL): 16 and 8
FICI (Escherichia coli ATCC 25922, cannabidiol with FADDI-287 at […]): 0.502
FICI (Escherichia coli ATCC 25922, cannabidiol with MCC_8980 at 0.5 μg/mL): 1.008
FICI (Escherichia coli ATCC 25922, cannabidiol with MCC_8980 at 1 μg/mL): 1.016
FICI (Escherichia coli ATCC 25922, cannabidiol with MCC_8980 at 2 μg/mL): 0.03125
FICI (Escherichia coli ATCC 25922, cannabidiol with MCC_8980 at 4 μg/mL): 0.1875
FICI (Escherichia coli ATCC 25922, cannabidiol with MCC_8980 at 4 μg/mL, listed as cannabidiol): 0.125
FICI (Escherichia coli ATCC 25922, cannabidiol with MCC_8980 at 8 μg/mL): 0.1328
FICI (Escherichia coli ATCC 25922, cannabidiol with SPR741 at 0.5 μg/mL): 1.008 and 1.004
FICI (Escherichia coli ATCC 25922, cannabidiol with SPR741 at 1 μg/mL): 1.016
FICI (Escherichia coli ATCC 25922, cannabidiol with SPR741 at 16 μg/mL): 0.127
MIC (ATCC25922, Escherichia coli ATCC 25922, FADDI-287 at 0.25 μg/mL, read-out: CBD MIC with FADDI-287): 0.062 mg/L
MIC (ATCC25922, Escherichia coli ATCC 25922, FADDI-287 at 0.5 μg/mL, read-out: CBD MIC with FADDI-287): 0.001 mg/L
MIC (ATCC25922, Escherichia coli ATCC 25922, FADDI-287 at 1 μg/mL, read-out: CBD MIC with FADDI-287): 0.001 mg/L
MIC (ATCC25922, Escherichia coli ATCC 25922, FADDI-287 at 2 μg/mL, read-out: CBD MIC with FADDI-287): 0.001 mg/L
MIC (ATCC25922, Escherichia coli ATCC 25922, FADDI-287 at 4 μg/mL, read-out: CBD MIC with FADDI-287): 0.001 mg/L
MIC (ATCC25922, Escherichia coli ATCC 25922, MCC_8980 at 2 μg/mL, read-out: CBD MIC with MCC_8980): 0.001 mg/L
MIC (ATCC25922, Escherichia coli ATCC 25922, MCC_8980 at 4 μg/mL, read-out: CBD MIC with MCC_8980): 32 mg/L
MIC (ATCC25922, Escherichia coli ATCC 25922, MCC_8980 at 8 μg/mL, read-out: CBD MIC with MCC_8980): 2 mg/L
MIC (ATCC25922, Escherichia coli ATCC 25922, MCC_8980 at 16 μg/mL, read-out: CBD MIC with MCC_8980): 2 mg/L
MIC (ATCC25922, Escherichia coli ATCC 25922, Spero SPR206 at 0.007 μg/mL, read-out: CBD MIC with Spero SPR206): ≥ 32 mg/L
MIC (ATCC25922, Escherichia coli ATCC 25922, Spero SPR206 at 0.015 μg/mL, read-out: CBD MIC with Spero SPR206): ≥ 32 mg/L
MIC (ATCC25922, Escherichia coli ATCC 25922, Spero SPR206 at 0.062 μg/mL, read-out: CBD MIC with Spero SPR206): 1 mg/L
MIC (ATCC25922, Escherichia coli ATCC 25922, Spero SPR206 at 4 μg/mL, read-out: CBD MIC with Spero SPR206): 0.001 mg/L
MIC (ATCC25922, MCC_6442 at 2 μg/mL, Escherichia coli ATCC 25922, read-out: CBD MIC with MCC_6442): 0.0039 mg/L
MIC (ATCC25922, MCC_6442 at 4 μg/mL, Escherichia coli ATCC 25922, read-out: CBD MIC with MCC_6442): 0.001 mg/L
MIC (ATCC25922, Octapeptin C4 at 4 μg/mL, read-out: CBD MIC with Octapeptin C4): 0.062 mg/L
MIC (ATCC25922, Spero SPR206 at 0.007 μg/mL, 2nd of 3 experiments, read-out: CBD MIC with Spero SPR206): > 256 mg/L
MIC (ATCC25922, Spero SPR206 at 0.015 μg/mL, 2nd of 3 experiments, read-out: CBD MIC with Spero SPR206): > 256 mg/L
MIC (ATCC25922, Spero SPR206 at 0.062 μg/mL, 2nd of 3 experiments, read-out: CBD MIC with Spero SPR206): 1 mg/L
MIC (ATCC25922, Spero SPR206 at 0.25 μg/mL, 1st of 3 experiments, read-out: CBD MIC with Spero SPR206): 0.001 mg/L
MIC (ATCC25922, Spero SPR206 at 0.25 μg/mL, 2nd of 3 experiments, read-out: CBD MIC with Spero SPR206): 1 mg/L
MIC (ATCC25922, Spero SPR206 at 0.25 μg/mL, 3rd of 3 experiments, read-out: CBD MIC with Spero SPR206): > 256 mg/L
MIC (ATCC25922, Spero SPR206 at 0.5 μg/mL, 1st of 3 experiments, read-out: CBD MIC with Spero SPR206): 0.001 mg/L
MIC (ATCC25922, Spero SPR206 at 0.5 μg/mL, 3rd of 3 experiments, read-out: CBD MIC with Spero SPR206): 2 mg/L
MIC (ATCC25922, Spero SPR206 at 1 μg/mL, 1st of 3 experiments, read-out: CBD MIC with Spero SPR206): 0.001 mg/L
MIC (ATCC25922, Spero SPR206 at 1 μg/mL, 3rd of 3 experiments, read-out: CBD MIC with Spero SPR206): 0.5 mg/L
MIC (ATCC25922, Spero SPR206 at 2 μg/mL, 1st of 3 experiments, read-out: CBD MIC with Spero SPR206): 0.001 mg/L
MIC (ATCC25922, Spero SPR206 at 2 μg/mL, 3rd of 3 experiments, read-out: CBD MIC with Spero SPR206): 0.25 mg/L
MIC (ATCC25922, Spero SPR206 at 4 μg/mL, 1st of 3 experiments, read-out: CBD MIC with Spero SPR206): 0.001 mg/L
MIC (ATCC25922, Spero SPR206 at 4 μg/mL, 3rd of 3 experiments, read-out: CBD MIC with Spero SPR206): 0.001 mg/L
activity of cannabidiol in combination with Polymyxin B (Example 1): effective
Average FICI score (Example 1, GN_001, cannabidiol + MCC_006636 (Polymyxin B)): 0.15
Synergy (Example 1, GN_001, cannabidiol + MCC_006636 (Polymyxin B), synergy when FICI≤0.5): YES
activity of cannabidiol combined with colistin (Example 3): effective
CBD MIC with Colistin at concentration 0.015625 μg/mL (Example 3, GN_001): >256 mg/L
CBD MIC with Colistin at concentration 0.03125 μg/mL (Example 3, GN_001): >256 mg/L
CBD MIC with Colistin at concentration 0.0625 μg/mL (Example 3, GN_001): 8 mg/L
CBD MIC with Colistin at concentration 0.25 μg/mL (Example 3, GN_001): 1 mg/L
CBD MIC with Colistin at concentration 0.5 μg/mL (Example 3, GN_001): 0.125 mg/L
CBD MIC with Colistin at concentration […] (Example 3, GN_001): 2 mg/L
activity of cannabidiol combined with Polymyxin B (Example 6): effective
CBD MIC with Polymyxin B at concentration 0.015625 μg/mL (Example 6, GN_001): >256 mg/L
CBD MIC with Polymyxin B at concentration 0.03125 μg/mL (Example 6, GN_001): >256 mg/L
CBD MIC with Polymyxin B at concentration 0.0625 μg/mL (Example 6, GN_001): >256 mg/L
CBD MIC with Polymyxin B at concentration 0.5 μg/mL (Example 6, GN_001): 0.0009766 mg/L
CBD MIC with Polymyxin B at concentration […] (Example 6, GN_001): >256 mg/L
CBD MIC with Polymyxin B at concentration 0.25 μg/mL (Example 6, GN_001, listed as CBD): 2 mg/L and 4 mg/L
activity of cannabidiol in combination with octapeptin MCC_006442 (Example 7): slightly effective
activity of cannabidiol combined with ticarcillin (Example 13): effective
activity of cannabidiol combined with colistin (Example 14): effective
activity of cannabidiol combined with octapeptin MCC_006442 (Example 15): effective
activity of cannabidiol combined with cefotetan (Example 17): effective
activity of cannabidiol combined with aztreonam (Example 18): effective
activity of cannabidiol combined with cefepime (Example 19): effective
activity of cannabidiol combined with octapeptin C4 (Example 21): effective
activity of cannabidiol in combination with Spero Potentiator SPR741 (Example 22): effective
activity of cannabidiol in combination with Spero SPR206 (Example 22): effective
activity of cannabidiol in combination with octapeptin FADDI-287 (Example 23): effective
activity of cannabidiol in combination with MCC_8980 (Example 24): effective
CBD MIC with MCC_6442 (MCC_6442 at 2 μg/mL, Escherichia coli ATCC 25922, listed as CBD): 0.0078 mg/L
CBD MIC with Spero SPR206 (Spero SPR206 at 1 μg/mL, 3rd of 3 experiments, listed as CBD): 0.25 mg/L
CBD MIC with Spero SPR206 (Spero SPR206 at 4 μg/mL, 3rd of 3 experiments, listed as CBD): 0.0019 mg/L
CBD MIC with Ticarcillin (Ticarcillin at 4 μg/mL, Escherichia coli ATCC 25922): 0.125 mg/L
CBD MIC with Ticarcillin (Ticarcillin at 8 μg/mL, Escherichia coli ATCC 25922): 0.001 mg/L

— patent US20230013669A1, “Antibacterial Treatment Using a Cannabinoid and an Active Agent” (priority 2019, published 2023)
